According to US12138240B2, “Treatment of cardiac dysfunction” (priority 2017, dated 2024):
Read-outs that look alike come from different tables or passages of the source.

Key:
[1] = system: male healthy subjects; assay: linear exposure-QTcF model (NONMEM); design: species or system human; settings: QTcFij=407+0.196*Parent−0.643*Metabolite−0.143*Time
Excerpt: Data analysis proceeded from data structure analysis in S-PLUS to linear/nonlinear mixed effects modeling in NONMEM to develop the exposure-QTc relationship for ANAVEX 2-73 and its active metabolite ANAVEX 19-144. The correction method used for QT interval was the Fridericia's correction. The bootstrap was used to determine the reliability/stability of the exposure-QTc models developed. This was necessary to determine if the modeling results obtained with data from the 17 subjects would be applicable to the population at large, given the sample size. […]
The approach used in characterizing exposure-QTc relationship was as follows: • 1) Concentration and QTc versus time plots were examined for any apparent trends or associations. • 2) Subject- and dose-specific QTc vs concentration plots were also examined for association as well as for the presence of any hysteresis indicative of temporal dissociations, i.e., indirect effects. • 3) All of the QTc measurements were plotted against the paired concentration measurements. […] Additionally, models incorporating cooperativity of drug action such as competitive antagonism between ANAVEX 2-73 and ANAVEX 19-144 concentrations and QTc effect were evaluated, as warranted, using nonlinear mixed effects modeling. […]

[2] = system: human subjects with sustained atrial flutter; assay: treatment of atrial flutter with A2-73 (Example 2); type: in vivo; settings: Example 2: 60 mg orally daily
Experimental: The safety, tolerability, and short term efficacy of […] 2-73 in human subjects with sustained atrial flutter as follows. A subject with atrial flutter (72 hr duration) receives 60 mg of A2-73 orally daily. Dosing is initiated in hospital and continues in weekly follow-up visits. Efficacy is assessed as absence of atrial flutter recurrence on weekly 12-lead ECG and daily transtelephonic monitoring during the study.

[3] = system: human subjects with sustained atrial fibrillation (AF); assay: treatment of atrial fibrillation with A2-73 (Examples 1 and 4); type: in vivo; settings: for AF recurrence: 30 day follow-up; for serious adverse events: to end of 30 day follow-up
Experimental: The safety, tolerability, and short term efficacy of […] A subject with symptomatic AF (72 hr duration) receives 30 mg of A2-73 orally every day. Dosing is initiated in hospital and continues in weekly follow-up visits. Efficacy is assessed as absence of AF recurrence on weekly 12-lead ECG and daily transtelephonic monitoring during the study. The safety, tolerability, and short term efficacy of […] A subject with symptomatic AF (72 hr duration) is administered intravenously 30 mg of A2-73 every day. Dosing is initiated in hospital and continues in weekly follow-up visits. Efficacy is assessed as absence of AF recurrence on weekly 12-lead ECG and daily transtelephonic monitoring during the study.

[4] = phase 2a studies, highest observed Cmax and extrapolation to 200 mg dose; settings: human, in vivo, footnote b, Alzheimer's disease patients, paired with ANAVEX 2-73 value, read-out: ANAVEX 19-144 Concentration, highest observed Cmax in phase 2a studies
Experimental: Estimates are employed to apply the Exposure-QTcF relationship using observed and unlikely to be observed concentrations of the parent drug and metabolite QTc intervals are predicted, given the parameter estimates obtained with the exposure-QTcF model developed. […] The predicted QTcF for that subject is 410.67 ms, given the corresponding concentration of ANAVEX 19-144 being 38.3 ng/mL (Table 3). Thus, the QT corrected interval upon treatment with ANAVEX 2-73 is predicted to be below 420 ms.
Observed and unlikely to be observed concentrations of the parent drug and metabolite are used to predict heart rate, given the parameter estimates obtained with the exposure-heart rate model developed. […] Thus, the heart rate upon treatment with ANAVEX 2-73 is predicted to be below 75 beats/min.

[5] = system: human subjects with sustained ventricular fibrillation; assay: treatment of ventricular fibrillation with A19-144 (Example 3); type: in vivo; settings: Example 3: 40 mg orally daily in two 20 mg doses
Experimental: The safety, tolerability, and short term efficacy of […] A subject with symptomatic ventricular fibrillation (72 hr duration) receives 40 mg of A19-144 orally daily in two 20 mg doses. Dosing is initiated in hospital and continues in weekly follow-up visits. Efficacy is assessed as absence of ventricular fibrillation recurrence on weekly 12-lead ECG and daily transtelephonic monitoring during the study.

[6] = system: muscarinic acetylcholine receptors; settings: stated as 'is believed to bind'; cited from earlier work
[7] = target: sigma-1 receptors (Homo sapiens, UniProt Q99720); settings: stated as 'is believed to bind'; cited from earlier work
sigma-1 receptors, sequence (Q99720 whole entry): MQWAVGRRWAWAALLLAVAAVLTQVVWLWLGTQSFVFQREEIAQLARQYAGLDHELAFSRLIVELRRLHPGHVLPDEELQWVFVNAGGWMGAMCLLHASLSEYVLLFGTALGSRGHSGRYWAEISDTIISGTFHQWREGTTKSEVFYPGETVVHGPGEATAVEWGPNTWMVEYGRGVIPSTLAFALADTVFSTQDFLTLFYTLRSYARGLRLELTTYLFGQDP

[8] = Example 1: 30 mg orally every day
[9] = Example 4: 30 mg intravenously every day

Compound	slope on Parent in final exposure-QTcF model [1]	time to cessation of arrhythmia [2] [h]	recurrence ([2]; 30 day follow-up)	serious adverse events ([2]; to end of 30 day follow-up)	time to cessation of AF [3, 8] [h]	AF recurrence [3, 8]	serious adverse events [3, 8]	time to cessation of AF [3, 9] [h]	AF recurrence [3, 9]	serious adverse events [3, 9]	Cmax ([4]; 50 mg) [ng/mL]	Cmax [4] [ng/mL]	time to cessation of ventricular fibrillation [5] [h]	ventricular fibrillation recurrence ([5]; 30 day follow-up)	serious adverse events ([5]; to end of 30 day follow-up)	affinity for muscarinic acetylcholine receptors [6]	affinity for sigma-1 receptors [7]
CN(C)CC1CCOC1(c1ccccc1)c1ccccc1.Cl (centres unmarked) [ANAVEX 2-73, 1-(2,2-diphenyltetrahydrofuran-3-yl)-N,N-dimethylmethanamine hydrochloride]	0.196	≤ 12	does not recur	no serious adverse events occur	≤ 12	does not recur	no serious adverse events occur	≤ 12	does not recur	no serious adverse events occur							
CNCC1CCOC1(c1ccccc1)c1ccccc1.Cl (centres unmarked) [ANAVEX 19-144, 1-(2,2-diphenyltetrahydrofuran-3-yl)-N-methylmethanamine hydrochloride]											11.1	23.1	≤ 12	does not recur	no serious adverse events occur	low micromolar range	low micromolar range
